Test results: patent publication US12275731B2, “Azaindole inhibitors of wild-type and mutant forms of LRRK2” (DANA-FARBER CANCER INSTITUTE, INC., priority 2018, dated 2025)

Legend:
Experiment in all cases: KinomeScan profiling
Format in all cases: binding
CSF1R-autoinhibited = target: T1, CSF1R-autoinhibited (Homo sapiens, UniProt P07333); conditions: read-out: % control
T1 sequence (P07333 539-972 limits assumed): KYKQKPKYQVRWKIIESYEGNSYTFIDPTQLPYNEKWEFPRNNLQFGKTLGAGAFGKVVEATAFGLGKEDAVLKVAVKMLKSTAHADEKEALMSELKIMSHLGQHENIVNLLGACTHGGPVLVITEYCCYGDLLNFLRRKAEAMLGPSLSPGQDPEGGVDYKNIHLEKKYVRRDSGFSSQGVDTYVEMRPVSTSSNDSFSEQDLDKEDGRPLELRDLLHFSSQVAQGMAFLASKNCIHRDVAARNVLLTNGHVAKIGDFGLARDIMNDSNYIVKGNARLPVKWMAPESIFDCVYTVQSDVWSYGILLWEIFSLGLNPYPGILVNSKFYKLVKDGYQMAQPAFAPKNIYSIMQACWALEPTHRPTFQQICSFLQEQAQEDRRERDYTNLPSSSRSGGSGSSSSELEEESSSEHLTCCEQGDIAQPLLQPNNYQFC
How it was run: (§1)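 Normalised RLU (% control; DMSO 100%, positive control 0%) was measured for compounds dosed at 1 μM over 468 kinases, active cut-off <35%.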

FGFR1 = FGFR1 (Homo sapiens, UniProt P11362); conditions: FGFR1, 1 μM; read-out: % control
How it was run: as §1

FYN = FYN (Homo sapiens, UniProt P06241); conditions: read-out: % control
How it was run: as §1

LZK = target: T2, LZK (Homo sapiens, UniProt O43283); conditions: read-out: % control
T2 sequence (O43283 1-966): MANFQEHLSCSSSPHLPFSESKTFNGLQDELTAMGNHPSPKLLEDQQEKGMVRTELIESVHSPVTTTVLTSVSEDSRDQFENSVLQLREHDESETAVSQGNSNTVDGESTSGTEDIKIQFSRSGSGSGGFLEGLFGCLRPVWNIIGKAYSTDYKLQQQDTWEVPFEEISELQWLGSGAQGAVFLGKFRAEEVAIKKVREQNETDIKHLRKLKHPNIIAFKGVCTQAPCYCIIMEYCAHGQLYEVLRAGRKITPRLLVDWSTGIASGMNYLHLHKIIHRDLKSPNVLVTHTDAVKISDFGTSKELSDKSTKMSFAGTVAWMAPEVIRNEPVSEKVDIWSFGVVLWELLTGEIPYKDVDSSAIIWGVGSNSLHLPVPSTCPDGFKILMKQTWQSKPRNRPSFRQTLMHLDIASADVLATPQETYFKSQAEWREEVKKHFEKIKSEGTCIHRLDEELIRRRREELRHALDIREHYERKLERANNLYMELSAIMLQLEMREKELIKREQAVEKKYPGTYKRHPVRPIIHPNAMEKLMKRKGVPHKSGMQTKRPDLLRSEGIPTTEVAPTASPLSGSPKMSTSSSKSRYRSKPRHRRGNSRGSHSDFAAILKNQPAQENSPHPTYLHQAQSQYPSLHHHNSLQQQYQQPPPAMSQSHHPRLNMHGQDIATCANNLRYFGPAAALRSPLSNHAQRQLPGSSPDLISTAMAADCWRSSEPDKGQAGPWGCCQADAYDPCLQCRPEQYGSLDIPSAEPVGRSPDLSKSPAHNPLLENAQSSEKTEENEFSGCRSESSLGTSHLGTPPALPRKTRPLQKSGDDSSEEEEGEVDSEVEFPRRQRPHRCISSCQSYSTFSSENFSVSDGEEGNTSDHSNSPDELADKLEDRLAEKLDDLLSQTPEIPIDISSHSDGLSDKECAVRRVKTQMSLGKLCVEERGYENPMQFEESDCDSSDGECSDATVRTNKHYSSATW
How it was run: as §1

MKNK1 = MKNK1 (Homo sapiens, UniProt Q9BUB5); conditions: MKNK1, 1 μM; read-out: % control
How it was run: as §1

PIM1 = target: T3, PIM1 (Homo sapiens, UniProt P11309); conditions: PIM1, 1 μM; read-out: % control
T3 construct: purchased KinomeScan® (panel service)
How it was run: as §1

RIPK5 = target: T4, RIPK5 (Homo sapiens, UniProt Q6XUX3); conditions: RIPK5, 1 μM; read-out: % control
T4 sequence (Q6XUX3 1-929): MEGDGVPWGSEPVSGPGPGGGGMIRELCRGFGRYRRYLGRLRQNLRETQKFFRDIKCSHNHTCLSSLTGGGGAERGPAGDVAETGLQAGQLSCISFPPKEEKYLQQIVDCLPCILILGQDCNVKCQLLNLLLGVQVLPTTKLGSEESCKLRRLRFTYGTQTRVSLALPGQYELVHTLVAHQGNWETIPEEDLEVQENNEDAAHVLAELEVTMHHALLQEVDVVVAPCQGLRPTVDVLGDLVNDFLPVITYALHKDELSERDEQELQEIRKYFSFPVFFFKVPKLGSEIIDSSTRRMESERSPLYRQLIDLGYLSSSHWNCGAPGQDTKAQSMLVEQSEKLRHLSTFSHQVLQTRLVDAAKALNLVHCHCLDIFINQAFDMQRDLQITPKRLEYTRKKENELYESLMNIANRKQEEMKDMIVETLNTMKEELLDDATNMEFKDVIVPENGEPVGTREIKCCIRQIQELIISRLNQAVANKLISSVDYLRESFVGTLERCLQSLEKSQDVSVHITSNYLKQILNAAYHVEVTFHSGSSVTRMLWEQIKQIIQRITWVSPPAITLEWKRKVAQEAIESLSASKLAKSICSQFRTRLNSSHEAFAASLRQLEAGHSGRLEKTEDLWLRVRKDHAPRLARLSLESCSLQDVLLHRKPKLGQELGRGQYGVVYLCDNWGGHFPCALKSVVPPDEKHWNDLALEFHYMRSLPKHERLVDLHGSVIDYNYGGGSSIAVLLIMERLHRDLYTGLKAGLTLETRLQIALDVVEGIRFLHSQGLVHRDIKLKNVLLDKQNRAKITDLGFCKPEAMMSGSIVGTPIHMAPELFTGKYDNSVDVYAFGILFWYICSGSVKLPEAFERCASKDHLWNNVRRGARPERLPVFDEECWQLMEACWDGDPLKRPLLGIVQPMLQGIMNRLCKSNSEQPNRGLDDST
How it was run: as §1

T3 sequence (P11309 whole entry): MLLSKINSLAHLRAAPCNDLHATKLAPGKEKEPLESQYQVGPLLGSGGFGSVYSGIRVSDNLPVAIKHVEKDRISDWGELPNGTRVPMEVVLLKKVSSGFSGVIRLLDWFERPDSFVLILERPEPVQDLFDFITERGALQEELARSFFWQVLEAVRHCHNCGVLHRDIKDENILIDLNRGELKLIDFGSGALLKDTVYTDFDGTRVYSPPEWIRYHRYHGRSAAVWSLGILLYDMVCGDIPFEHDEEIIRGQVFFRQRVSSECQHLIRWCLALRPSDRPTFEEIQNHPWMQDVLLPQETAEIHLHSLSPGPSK
Sequence of FGFR1 (P11362 22-822): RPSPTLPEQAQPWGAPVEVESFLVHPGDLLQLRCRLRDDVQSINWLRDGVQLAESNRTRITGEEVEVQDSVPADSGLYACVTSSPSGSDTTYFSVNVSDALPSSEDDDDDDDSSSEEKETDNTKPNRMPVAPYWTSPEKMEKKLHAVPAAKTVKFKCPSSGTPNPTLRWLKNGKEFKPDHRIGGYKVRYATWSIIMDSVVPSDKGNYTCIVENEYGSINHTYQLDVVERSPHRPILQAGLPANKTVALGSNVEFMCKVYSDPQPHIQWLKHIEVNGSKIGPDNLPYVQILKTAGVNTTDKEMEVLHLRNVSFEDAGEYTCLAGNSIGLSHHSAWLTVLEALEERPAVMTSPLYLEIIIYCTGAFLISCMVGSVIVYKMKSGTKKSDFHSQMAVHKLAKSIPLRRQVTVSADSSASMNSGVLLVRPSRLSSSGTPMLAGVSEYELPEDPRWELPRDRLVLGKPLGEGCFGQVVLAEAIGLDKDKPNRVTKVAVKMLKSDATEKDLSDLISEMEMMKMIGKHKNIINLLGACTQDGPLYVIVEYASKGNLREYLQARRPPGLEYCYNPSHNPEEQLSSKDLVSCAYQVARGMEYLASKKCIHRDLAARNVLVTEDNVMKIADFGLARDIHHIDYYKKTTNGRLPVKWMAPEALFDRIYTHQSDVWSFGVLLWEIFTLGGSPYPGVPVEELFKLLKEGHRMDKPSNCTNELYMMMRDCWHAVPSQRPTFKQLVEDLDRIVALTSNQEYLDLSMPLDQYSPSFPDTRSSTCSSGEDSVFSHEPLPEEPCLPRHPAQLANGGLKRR
Sequence of MKNK1 (Q9BUB5 whole entry): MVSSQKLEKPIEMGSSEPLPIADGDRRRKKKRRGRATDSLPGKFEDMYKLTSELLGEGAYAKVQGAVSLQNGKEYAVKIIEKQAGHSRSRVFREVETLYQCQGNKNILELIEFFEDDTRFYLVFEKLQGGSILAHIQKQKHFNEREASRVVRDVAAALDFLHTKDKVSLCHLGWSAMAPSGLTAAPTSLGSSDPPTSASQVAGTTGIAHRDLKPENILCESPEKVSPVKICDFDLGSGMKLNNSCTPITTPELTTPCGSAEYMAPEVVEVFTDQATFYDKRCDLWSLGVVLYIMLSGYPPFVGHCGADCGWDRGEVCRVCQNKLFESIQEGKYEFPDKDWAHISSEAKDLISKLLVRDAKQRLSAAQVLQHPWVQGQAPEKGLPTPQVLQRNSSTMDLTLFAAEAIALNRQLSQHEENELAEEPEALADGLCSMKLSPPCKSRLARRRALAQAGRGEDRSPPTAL
Sequence of FYN (P06241 whole entry): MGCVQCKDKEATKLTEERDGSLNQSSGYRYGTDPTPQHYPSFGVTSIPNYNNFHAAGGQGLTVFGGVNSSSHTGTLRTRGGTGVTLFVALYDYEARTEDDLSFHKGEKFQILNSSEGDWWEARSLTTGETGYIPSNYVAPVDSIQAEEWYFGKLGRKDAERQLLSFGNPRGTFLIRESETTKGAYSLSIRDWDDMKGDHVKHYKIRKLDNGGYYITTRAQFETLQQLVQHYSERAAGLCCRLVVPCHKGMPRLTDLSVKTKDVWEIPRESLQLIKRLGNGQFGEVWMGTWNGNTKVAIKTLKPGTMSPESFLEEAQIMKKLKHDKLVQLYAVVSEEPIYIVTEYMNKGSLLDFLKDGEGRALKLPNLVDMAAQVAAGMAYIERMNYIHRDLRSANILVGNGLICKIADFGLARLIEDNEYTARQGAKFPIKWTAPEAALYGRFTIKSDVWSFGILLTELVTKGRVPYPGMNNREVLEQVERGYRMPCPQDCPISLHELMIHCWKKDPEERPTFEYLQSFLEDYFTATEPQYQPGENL

Compound	remaining binding at 1 µM (CSF1R-autoinhibited) [%]	remaining binding at 1 µM (FGFR1) [%]	remaining binding at 1 µM (FYN) [%]	remaining binding at 1 µM (LZK) [%]	remaining binding at 1 µM (MKNK1) [%]	remaining binding at 1 µM (PIM1) [%]	remaining binding at 1 µM (RIPK5) [%]
CNc1c(-c2cnn([C@H]3CCN(C(C)=O)C[C@@H]3F)c2)cnc2[nH]cc(Cl)c12 [Compound 77, 1-((3S,4S)-4-(4-(3-chloro-4-(methylamino)-1H-pyrrolo[2,3-b]pyridin-5-yl)-1H-pyrazol-1-yl)-3-fluoropiperidin-1-yl)ethan-1-one]	30	87	94	61	97	95	31
CNc1c(-c2ccc(C(=O)N3CCC(N4CCOCC4)CC3)cc2)cnc2[nH]cc(Cl)c12 [Compound 96, (4-(3-chloro-4-(methylamino)-1H-pyrrolo[2,3-b]pyridin-5-yl)phenyl)(4-morpholinopiperidin-1-yl)methanone]	49	85	96	89	100	100	8.6
O=C(c1ccc(-c2cnc3[nH]cc(Cl)c3c2NC2CCCC2)cc1)N1CCC(N2CCOCC2)CC1 [Compound 101, (4-(3-chloro-4-(cyclopentylamino)-1H-pyrrolo[2,3-b]pyridin-5-yl)phenyl)(4-morpholinopiperidin-1-yl)methanone]	3.2	77	87	76	100	95	50
